# Assay results published in PubChem BioAssay (NCI).
# “And” between values parts separate entries of the source, which are not always exact repeats. Equal values may be shown once.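 Exposure lasted 48 hours, with cells grown in 96-well plates and compounds tested at five concentrations. GI50 = concentration required for 50% inhibition of growth. TGI: total growth inhibition.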
# How the values were obtained:
# Assay in all cases: NCI tumour cell line growth inhibition, 48 h
# [1] = test system: NCI/ADR-RES ovarian
# [2] = test system: MDA-MB-435
# [3] = test system: MDA-N
# [4] = test system: XF 498 CNS
# [5] = test system: LXFL 529 NSCLC
# [6] = test system: DLD-1 colon
# [7] = test system: RXF-631 renal
# [8] = test system: HOP-18 NSCLC
SMILES,GI50 [1],TGI [1],GI50 [2],TGI [2],TGI [3],TGI [4],TGI [5],TGI [6],TGI [7],TGI [8]
COC(=O)/C=C/c1cc(OC(C)=O)c2c(c1)C(C(=O)OC)C(c1ccc(OC(C)=O)c(OC(C)=O)c1)O2 (centres undefined),0.098 µM,> 100 µM,0.0219 µM,0.0606 µM,,,,,,
COc1cc2c3c(n(C)c(=O)c2cc1OC)-c1cc2c(cc1C3=O)OCO2,,> 100 µM,,> 100 µM,> 100 µM,,,,,
CNc1cc2oc(=O)cc(C)c2cc1C,,> 100 µM,,> 100 µM,> 100 µM,,,,,
COc1ccc(-c2c(C#N)c(N3CCOCC3)nc3[nH]c(=S)[nH]c(=S)c23)cc1OC,56.6 µM,> 100 µM,54.8 µM,> 100 µM,,,,,,
CCCCCCn1c(-c2ccc(C(=O)O/N=C(\N)c3ccc4c(c3)OCO4)cc2)nc(-c2ccccc2)c1-c1ccccc1,1.68 µM,3.65 µM,1.77 µM,3.35 µM,,,,,,
CC(C)C1CN(C(=O)OCc2ccccc2)C2N1C(=O)C2(C)OCc1ccccc1 (centres undefined),,,,,,33.5 µM,> 100 µM,> 100 µM,> 100 µM,
CO[C@@H]1CC[C@]2(C)OC[C@H](C)[C@@H]3C[C@@H](C)[C@@H](OC(C)=O)[C@@H]4[C@H]3[C@@H]2O[C@H]4C[C@@]1(C)O,> 100 µM,> 100 µM,> 100 µM,> 100 µM,,,,,,
NC(=O)c1cc(I)ccc1NC(=O)/C=C/c1ccccc1,0.351 µM,3.92 µM,0.192 µM,0.445 µM,,,,,,
CN(C)CCNC(=O)Cc1ccccc1Nc1c(Cl)cccc1Cl,,,,,,,32.5 µM,27.3 µM,,
CC12c3ccccc3C(OC=O)(c3ccccc31)C1(C)c3ccccc3C2(OC=O)c2ccccc21,,,,,,,> 100 µM,> 100 µM,> 100 µM,> 100 µM
O=C1c2cccc3cccc(c23)C(=O)N1CCN(CCO)CCO,,,,,,66.5 µM,> 100 µM,> 100 µM,> 100 µM,> 100 µM
CCCCCCCCCCCC[N+]12CC[N+](CCN)(CC1)CC2,,,,,,> 100 µM,> 100 µM,> 100 µM,> 100 µM,> 100 µM
C=C(CN(C)Cc1ccccc1)c1ccc(NC(=O)c2ccc(C(=C)CN(C)Cc3ccccc3)cc2)cc1,34.8 µM,> 100 µM,> 100 µM,> 100 µM,,,,,,
CCC(C)(C)n1c(C)nc2c1C(=O)c1ccccc1C2=O,,,,,,46.7 µM,> 100 µM,> 100 µM,,
O=[N+]([O-])c1cccnc1N=Nc1c(O)[nH]c2ccccc12,,> 100 µM,,> 100 µM,> 100 µM,,,,,
Cc1cc(C)nc(NS(=O)(=O)c2ccc(Nc3c4ccccc4nc4c(C(=O)N5CCN(CCO)CC5)cccc34)cc2)n1,,,,,,> 100 µM,> 100 µM,> 100 µM,,> 100 µM
CCCCNCCCNCCCNC(=O)c1csc(-c2csc(CCNC(=O)C(NC(=O)C(C)C(O)C(C)NC(=O)C(NC(=O)c3nc(C(CC(N)=O)NCC(N)C(N)=O)nc(N)c3C)C(OC3OC(CO)C(O)C(O)C3OC3OC(CO)C(O)C(OC(N)=O)C3O)c3cnc[nH]3)C(C)O)n2)n1 (centres undefined),,,,50 µM,,,> 100 µM,> 100 µM,> 100 µM,> 100 µM
COc1c2occc2c(N)c2ccc(=O)oc12,,> 100 µM,,> 100 µM,> 100 µM,,,,,
O=C(Nc1ncc(Cc2cccc(C(F)(F)F)c2)s1)c1ccc2c(c1)OCCO2,0.251 µM,6.96 µM,0.0352 µM,0.172 µM,,,,,,
Cc1nc2c(N)ncnc2o1,,,,,,,> 100 µM,> 100 µM,> 100 µM,> 100 µM
CCOc1ccc(OCC(=O)O)c2c1CCCC2=O,,,,,,> 100 µM,> 100 µM,> 100 µM,> 100 µM,
O=C(O)c1ccc(CNCc2ccccc2)cc1,,> 100 µM,,> 100 µM,> 100 µM,,,,,
Cc1cc(C(=O)CSC(=S)SC(C)(C)C)ccc1Cl,,42.1 µM,,91.1 µM,36.8 µM,,,,,
Nc1c(C(=O)Nc2ccccn2)sc2nc3c(cc12)C(=O)CCC3,0.929 µM,> 100 µM,,,,,,,,
COc1c(C)c(OCC=C(C)C)cc(CO)c1CO,,> 100 µM,,> 100 µM,> 100 µM,,,,,

SMILES,GI50 [1],TGI [1],GI50 [2],TGI [2],TGI [3],TGI [4],TGI [5],TGI [6],TGI [7],TGI [8]
Oc1oc(C(=C2N=c3ccccc3=N2)c2ccc(Cl)cc2)c(O)c1-c1ccc(Cl)cc1,,,,,,,12.2 µM,> 100 µM,> 100 µM,> 100 µM
C/C(=N\NC(N)=O)c1sc(-c2nc(C)c(/C(C)=N/NC(N)=O)s2)nc1C,,,,,,> 100 µM,> 100 µM,> 100 µM,,> 100 µM
COc1cc(/C=C2\CCCCC3=C2N=C2SC(C)=CN2C3c2cc(OC)c(OC)c(OC)c2)cc(OC)c1OC (centres undefined),12 µM,> 100 µM,24.3 µM,> 100 µM,,,,,,
O=C1C=C(c2c(O)ccc3ccccc23)c2cc(O)ccc2C1=O,,,,,,23.3 µM,19.5 µM,37.6 µM,,43.8 µM
CCn1cc(-c2ccnc3[nH]c(-c4cccc(CN(C)C)c4)cc23)c(-c2ccc(NC(=O)N(C)C)cc2)n1,23.4 µM and > 10 µM,> 100 µM,4.77 µM and > 10 µM,21.4 µM and > 10 µM,,,,,,
COc1ccc(CNc2c3ccccc3nc3ccccc23)cc1F,2.58 µM,10.3 µM,2.9 µM,,,,,,,
N#CC(I)CS(=O)(=O)c1ccccc1 (centres undefined),17.5 µM,35.1 µM,17.6 µM,34.5 µM,,,,,,
Cc1nc2sccn2c1-c1nc2sccn2c1/C=C1/C(=O)Nc2ccccc21,9.08 µM,> 100 µM,0.53 µM,2.52 µM,,,,,,
COc1ccc(/C=C\c2cc(OC)c(OC)c(OC)c2)cc1OCC(=O)O,,5.39 µM,,3.27 µM,13.5 µM,,> 100 µM,> 90.2 µM,> 100 µM,> 100 µM
O=C1C=C(Nc2ccc(Cl)cc2C(=O)c2ccccc2)c2ccccc2C1=O,,,,,,> 100 µM,> 100 µM,> 100 µM,> 100 µM,> 100 µM
Cc1cccc(NC2=C(Cl)C(=O)c3nc(C)ccc3C2=O)c1,1.58 µM,4.14 µM,0.218 µM,0.469 µM,,,,,,
CN1Nc2ccccc2CC1=O,,,,,,> 100 µM,,> 100 µM,,> 100 µM
Cc1cc2c(cc1C)[n+](=O)cc(C(=O)C/C(=N/NC(=S)NN)C(=O)Nc1cccc(C(F)(F)F)c1)n2[O-],,,,,,,> 100 µM,> 100 µM,> 100 µM,> 100 µM
CCN(Cc1c(F)cccc1OC)c1ccc(CO)c(Cl)c1,13.3 µM,43.1 µM,16 µM,39 µM,,,,,,
O=[N+]([O-])c1ccccc1N=Nc1c(O)[nH]c2c(Cl)cc(Cl)cc12,,> 100 µM,,> 100 µM,> 100 µM,,,,,
CCN(CCNS(C)(=O)=O)c1ccc(N)c(C)c1,11.8 µM,40.9 µM,2.75 µM,6.91 µM,,,,,,
COc1ccc(NC(=O)CSc2nnc(-c3ccc(NC(C)=O)cc3)o2)cc1,,,,,,,26.7 µM,41 µM,,34.9 µM
CCCCCCCC(=O)OCC1OC(n2cc(F)c(=O)[nH]c2=O)C(N)C(OC(=O)CCCCCCC)C1O (centres undefined),,,,,,,30.9 µM,,,
O=c1cccc(C#CC#C[C@@H]2O[C@H]2CO)o1,1.24 µM,4.53 µM,2.12 µM,4.56 µM,,,,,,
NNc1ncnc2nc[nH]c12,3.37 µM,> 100 µM,5.57 µM,> 100 µM,,,,,,
CC(=O)N/C(=C\c1ccccc1/C=C(\NC(C)=O)c1nc2cc(C)c(C)cc2[nH]1)c1nc2cc(C)c(C)cc2[nH]1,,,,,,32.9 µM,30.8 µM,56.5 µM,,
O=c1[nH]c(O)c(C=Nc2ccc(-c3nc4ccccc4o3)cc2)c(=O)[nH]1,3.56 µM,9.59 µM,33.3 µM,> 100 µM,,,,,,
CNc1nc(N)nc(Nc2ccc(I)cc2)c1N=O,,> 100 µM,,> 100 µM,> 100 µM,,,,,
C=CC12CCN(CC1)C(C(O)c1ccnc3ccc(OC)cc13)C2 (centres undefined),> 100 µM,> 100 µM,> 100 µM,> 100 µM,,,,,,
C[N+](C)(C)CC(=O)N/N=C(/Cc1cc(=O)oc2cc(O)ccc12)C(=O)Nc1ccc(Cl)cc1,,,,,,,,> 100 µM,> 100 µM,
COc1ccc(Cl)cc1NC(=O)c1ccc(NC2=C(Cl)C(=O)N(Cc3ccccc3)C2=O)cc1,55.1 µM,> 100 µM,99.7 µM,> 100 µM,,,,,,

SMILES,GI50 [1],TGI [1],GI50 [2],TGI [2],TGI [3],TGI [4],TGI [5],TGI [6],TGI [7],TGI [8]
CSC[C@H](NC(=O)COc1cccc2cnccc12)C(=O)NC(Cc1ccccc1)C(O)C(=O)N1CSC[C@H]1C(=O)NC(C)(C)C (some centres undefined),,> 100 µM,,> 100 µM,> 100 µM,,,,,
COc1ccc2c(=O)oc3c(OC)cc(CCN(C)C)c4c(=O)oc1c2c34,,23.5 µM,,16.1 µM,14.8 µM,,26 µM,39.4 µM,,27.6 µM
NC(N)=Nc1nc2ccccc2o1,> 100 µM,> 100 µM,> 100 µM,> 100 µM,,,,,,
CCOC(=O)Nc1c(C)nc2ccccn12,,,> 100 µM,> 100 µM,,,,,,
O=C1C/C(Br)=C\c2ccccc2-c2ccccc21,,,,,,3.7 µM,3.5 µM,2.92 µM,,16.8 µM
CCOc1ccc(NC(=O)CC2SC(=Nc3ccc(C)cc3C)NC2=O)cc1 (centres undefined),,,,,,> 100 µM,> 100 µM,> 100 µM,,
CC1=C(C(=O)Nc2ccccc2)C(c2ccc(Cl)c(Cl)c2)C(C(=O)Nc2ccccc2)=C(C)N1,,,,,,30.6 µM,25.6 µM,25.7 µM,27.7 µM,
CCSc1nc(N=Cc2ccccc2O)c2cn[nH]c2n1,20.3 µM,63.6 µM,19.7 µM,72.8 µM,,,,,,
CCOC(=O)c1c(C)c2c(n1Cc1ccccc1)CSCC2=O,16.7 µM,51.4 µM,17.3 µM,39.1 µM,,,,,,
O=S(=O)(OI(OI(OS(=O)(=O)C(F)(F)F)c1ccccc1)c1ccccc1)C(F)(F)F,,,,,,,> 100 µM,> 100 µM,,
O=Cc1cc2c(cc1-c1cc3c(cc1C=O)OCO3)OCO2,,,,,,,> 100 µM,> 100 µM,,> 100 µM
O=c1[nH]c(=O)n(C2CC(O)C(CO)O2)cc1OS(=O)(=O)C(F)(F)F (centres undefined),,,,,,> 100 µM,> 100 µM,> 100 µM,> 100 µM,> 100 µM
NCCCn1c2c(c3ccc([N+](=O)[O-])cc3c1=O)C(=O)c1cc(I)ccc1-2,0.0416 µM,1.88 µM,0.223 µM,1.85 µM,,,,,,
COc1cccc2c1O/C(=C\c1ccc([N+](=O)[O-])s1)C2=O,3.92 µM,> 100 µM,,,,,,,,
COC(=O)C1=CN(CC2=CC(=O)C(C)=CC2=O)C=C(C(=O)OC)C1c1ccccc1OC,17.4 µM,34.8 µM,21.8 µM,> 53.7 µM,,,,,,
O/N=C1\CCCCC1C(NO)c1ccccc1 (centres undefined),,,,,,,> 100 µM,> 100 µM,> 100 µM,> 100 µM
O=C(Nc1nc(-c2c[nH]c3ccccc23)cs1)c1n[nH]c(=O)c2ccccc12,6.74 µM,78.6 µM,3.96 µM,> 100 µM,,,,,,
c1ccc2c(c1)CCc1c(-c3ccncc3)n[nH]c1-2,,,,,,22.5 µM,66.2 µM,> 100 µM,,
COc1cc(C[P+](c2ccccc2)(c2ccccc2)c2ccccc2)cc(OC)c1OC,,,,,,> 100 µM,> 100 µM,> 100 µM,,
COC(=N)c1csc(C2OC(CO)C(O)C2O)n1 (centres undefined),,,,,,> 100 µM,> 100 µM,> 100 µM,> 100 µM,> 100 µM
CCCN(CCC)c1c([N+](=O)[O-])cc(C(=O)N(CC)CC)cc1[N+](=O)[O-],,,,,,,63.7 µM,> 100 µM,,
FC(F)(F)c1ccc2nc(NCc3ccccc3)c(-c3ccccc3)nc2c1,,,,,,43.5 µM,> 100 µM,,,> 100 µM
CNCCCNc1ccnc2cc(Cl)ccc12,34.4 µM,> 100 µM,14.4 µM,28.4 µM,,,,,,
Nc1c(S(=O)(=O)c2ccc(Cl)cc2)c2nc3ccccc3nc2n2ccnc12,,,,,,> 100 µM,> 100 µM,> 100 µM,,79.3 µM
